Assay results as given in patent publication US9546153B2, “Bicyclic heterocycle substituted pyridyl compounds useful as kinase modulators” (BRISTOL-MYERS SQUIBB COMPANY, priority 2012, dated 2017).
Where two headings read alike, the source gives them in different places.

Test system: TLR2 induced IL-6 in peripheral blood mononuclear cells (PBMCs)
Assay: PBMC TLR2 Induced IL-6 Assay
Type: cell-based, human
Details: for IC50: read-out: Cell IC50; for EC50: EC50 determinations are indicated with an asterisk, read-out: Cell EC50 (asterisk)
Protocol: Peripheral blood mononuclear cells (PBMCs) were isolated from human blood containing the anti-coagulant EDTA (2.5 mM) by centrifugation over a FICOLL® gradient. PBMCs (250000 cells/well) were cultured in assay media (RPMI with 10% heat inactivated FCS) with compounds for 30 minutes at 37° C. in a 5% CO2 incubator. Following pretreatment with compounds, cells were stimulated for 5 hours with 10 μg/ml lipoteichoic acid (Invivogen, San Diego, Calif.), a TLR2 agonist. At the end of the culture, plates were centrifuged at 1800 rpm for 10 minutes to pellet the cells. Supernatants were harvested and analyzed for IL-6 levels by ELISA (BD Biosciences, San Jose, Calif.). Inhibition was calculated as either an IC50 or EC50. EC50 determinations are indicated with an asterisk.

[1] = human PBMCs, 10 μg/ml lipoteichoic acid for 5 hours, IL-6 by ELISA, value without asterisk
[2] = Homo sapiens, PBMC, 5 h, human PBMCs, 10 μg/ml lipoteichoic acid for 5 hours, IL-6 by ELISA, value without asterisk
[3] = Homo sapiens, PBMC, 5 h, human PBMCs, 10 μg/ml lipoteichoic acid for 5 hours, IL-6 by ELISA

Row | SMILES | IC50 [1] [nM] | IC50 [2] [nM] | other results
1 | Cc1cc2nc(Nc3cc(NC4CCC(F)C4)c(C(=O)NC[C@@H](F)C(C)(C)O)cn3)ccn2n1 (stereo partly drawn) [Example 380] | 468 | – | –
2 | CC(C)(O)[C@H](F)CNC(=O)c1cnc(Nc2nc3ccnn3cc2F)cc1NC1CCCC1F (stereo partly drawn) [Example 471] | 1200 | – | –
3 | CC(C)(O)[C@H](F)CNC(=O)c1cnc(Nc2ccc3ncsc3c2)cc1NCC1CCCC1O (stereo partly drawn) [Example 112] | 203 | – | –
4 | CC(C)(O)[C@H](F)CNC(=O)c1cnc(Nc2ccn3nccc3n2)cc1NC1CCC(F)(F)C1 (stereo partly drawn) [Example 258] | 432 | – | –
5 | CC(C)CCNc1cc(Nc2ccc3ncsc3c2)ncc1C(=O)NC[C@@H](F)C(C)(C)O [Example 163] | – | 230 | –
6 | CC(C)(O)[C@H](F)CNC(=O)c1cnc(Nc2ccc3nonc3c2)cc1NC1CCOCC1 [Example 99] | – | 258 | –
7 | CC(C)(O)[C@H](F)CNC(=O)c1cnc(Nc2nc3ccnn3cc2F)cc1NC1CCCC1F (stereo partly drawn) [Example 472] | 1360 | – | –
8 | CC(C)(O)[C@H](F)CNC(=O)c1cnc(Nc2ccn3nccc3n2)cc1NC1CCC(F)(F)C1 (stereo partly drawn) [Example 242] | 179 | – | –
9 | CCNc1cc(Nc2ccn3nccc3n2)ncc1C(=O)NC[C@@H](F)C(C)(C)O [Example 239] | – | 379 | –
10 | CC(C)(O)[C@H](F)CNC(=O)c1cnc(Nc2ccc3ncsc3c2)cc1NCC1CC1 [Example 62] | – | 288 | –
11 | CC(O)([C@H](F)CNC(=O)c1cnc(Nc2ccc3ncsc3c2)cc1NC1CCCC1F)C(F)(F)F (stereo in doubt) [Example 341] | 97 | – | –
12 | O=C(NC[C@@H](F)CO)c1cnc(Nc2ccc3ncsc3c2)cc1NC1CC1 [Example 7] | – | 732 | –
13 | CC(C)(O)[C@H](F)CNC(=O)c1cnc(Nc2ccn3nccc3n2)cc1NCC(F)(F)F [Example 238] | – | 595 | –
14 | CNC(=O)c1cnc(Nc2ccc3ncsc3c2)cc1N[C@H](CO)c1ccccc1 [Example 145] | – | – | IC50 (Homo sapiens, PBMC, 5 h): 260 nM
15 | CC(C)(O)[C@H](F)CNC(=O)c1cnc(Nc2ccn3nccc3n2)cc1NC1CCOCC1F (stereo partly drawn) [Example 249] | 554 | – | –
16 | CC(C)Nc1cc(Nc2ccc3nsnc3c2)ncc1C(=O)NC[C@@H](F)C(O)C(C)C (stereo partly drawn) [Example 23] | 165 | – | –
17 | CC(C)Nc1cc(Nc2ccc3ncsc3c2)ncc1C(=O)N[C@H]1CCN(S(C)(=O)=O)C1 [Example 215] | – | 566 | –
18 | CC(C)Nc1cc(Nc2ccc3ncsc3c2)ncc1C(=O)NC[C@@H](F)C(O)(C1CC1)C(F)(F)F (stereo partly drawn) [Example 31] | 249 | – | –
19 | CC(C)(O)[C@H](F)CNC(=O)c1cnc(Nc2ccc3ncccc3n2)cc1NC1CCCOC1 (stereo partly drawn) [Example 432] | 503 | – | –
20 | CC(C)(O)[C@H](F)CNC(=O)c1cnc(Nc2nc3ccnn3cc2F)cc1NC1CCCC1O (stereo partly drawn) [Example 465] | 388 | – | –
21 | CC(O)([C@H](F)CNC(=O)c1cnc(Nc2ccc3ncsc3c2)cc1NC1CCCC1F)C(F)(F)F (stereo in doubt) [Example 342] | 71 | – | –
22 | CC(C)Nc1cc(Nc2ccc3ncsc3c2)ncc1C(=O)NC[C@@H](F)C(O)(C1CC1)C(F)(F)F (stereo partly drawn) [Example 30] | – | 228 | –
23 | Cc1cnc2ccc(Nc3cc(NC4CC4)c(C(=O)NC[C@@H](F)C(C)(C)O)cn3)nn12 [Example 276] | – | 256 | –

Row | SMILES | IC50 [1] [nM] | IC50 [2] [nM] | other results
24 | CC(C)(O)[C@H](F)CNC(=O)c1cnc(Nc2ccc3ncncc3c2)cc1NC1CC1 [Example 81] | – | 100 | –
25 | CC(C)(O)[C@H](F)CNC(=O)c1cnc(Nc2nc3ccnn3cc2F)cc1N[C@H]1CCC[C@@H]1O [Example 466] | – | 212 | –
26 | CC(C)(O)[C@H](F)CNC(=O)c1cnc(Nc2nc3ccnn3cc2F)cc1NC1CCCC1O (stereo partly drawn) [Example 464] | 843 | – | –
27 | CC(O)([C@H](F)CNC(=O)c1cnc(Nc2ccc3ncsc3c2)cc1NC1CCCC1F)C(F)(F)F (stereo in doubt) [Example 339] | 460 | – | –
28 | CC(C)(O)[C@H](F)CNC(=O)c1cnc(Nc2ccn3nccc3n2)cc1NC1CCC(F)(F)C1 (stereo partly drawn) [Example 259] | 132 | – | –
29 | CC(C)(O)[C@H](F)CNC(=O)c1cnc(Nc2ccn3nccc3n2)cc1NC1CCOCC1F (stereo partly drawn) [Example 270] | 265 | – | –
30 | CC(C)(O)[C@H](F)CNC(=O)c1cnc(Nc2ccn3nccc3n2)cc1NC1CCC1 [Example 241] | – | 516 | –
31 | CC(C)(O)[C@H](F)CNC(=O)c1cnc(Nc2ccc3ccncc3c2)cc1NC1CC1 [Example 132] | – | 350 | –
32 | CC(C)(O)CCNC(=O)c1cnc(Nc2ccc3ncsc3c2)cc1N[C@H]1CC[C@@H](F)CC1 [Example 174] | – | 150 | –
33 | CC(C)(O)[C@H](F)CNC(=O)c1cnc(Nc2ccc3ncoc3c2)cc1N[C@@H]1CCC[C@H]1O [Example 336] | – | 466 | –
34 | CN(C)C(=O)c1ccc(Nc2cc(Nc3ccc4ncsc4c3)ncc2C(=O)NC[C@@H](F)C(C)(C)O)cc1 [Example 323] | – | 207 | –
35 | CC(C)(O)[C@H](F)CNC(=O)c1cnc(Nc2ccc3ncsc3n2)cc1NC1CCOCC1F (stereo partly drawn) [Example 418] | 30 | – | –
36 | CC(C)Nc1cc(Nc2nc3cccnc3cc2F)ncc1C(=O)NC[C@@H](F)C(C)(C)O [Example 499] | – | – | EC50 [3]: 72 nM
37 | CC(C)Nc1cc(Nc2ncc3ncsc3c2F)ncc1C(=O)NC[C@@H](F)C(C)(C)O [Example 440] | – | 330 | –
38 | CC(C)Nc1cc(Nc2ccc3ncccc3c2)ncc1C(=O)NC[C@@H](F)C(C)(C)O [Example 47] | – | 571 | –
39 | CC(C)(O)[C@H](F)CNC(=O)c1cnc(Nc2nc3ccnn3cc2F)cc1NC1CCCC1F (stereo partly drawn) [Example 463] | 204 | – | –
40 | CC(C)(O)[C@H](F)CNC(=O)c1cnc(Nc2ccc3ncsc3c2)cc1NC1CCCC1O (stereo partly drawn) [Example 335] | – | 135 | –
41 | CC(C)Nc1cc(Nc2ncc3ncccc3n2)ncc1C(=O)NC[C@@H](F)C(C)(C)O [Example 370] | – | 571 | –
42 | CC(C)(O)[C@H](F)CNC(=O)c1cnc(Nc2ccc3ncsc3c2)cc1NCC1CCCC1O (stereo partly drawn) [Example 113] | 803 | – | –
43 | CC(C)(O)[C@H](F)CNC(=O)c1cnc(Nc2ccn3nccc3n2)cc1NC1CCOCC1F (stereo partly drawn) [Example 266] | 548 | – | –
44 | CC(C)Nc1cc(Nc2nc3ccnn3cc2F)ncc1C(=O)NCC(F)(F)C(C)(C)O [Example 522] | – | 795 | –
45 | CC(C)(O)[C@H](F)CNC(=O)c1cnc(Nc2ccc3nonc3c2)cc1NC1CC1 [Example 80] | – | 271 | –
46 | O=C(NC[C@@H](F)CO)c1cnc(Nc2ccc3[nH]c(=O)sc3c2)cc1NC1CCCC1 [Example 6] | – | 231 | –

Row | SMILES | IC50 [1] [nM] | IC50 [2] [nM] | other results
47 | CC(C)Nc1cc(Nc2ccc3nscc3c2)ncc1C(=O)NC[C@@H](F)C(C)(C)O [Example 56] | – | 330 | –
48 | CC(C)(O)[C@H](F)CNC(=O)c1cnc(Nc2ccc3ncccc3n2)cc1NC1CCCOC1 (stereo partly drawn) [Example 431] | 220 | – | –
49 | CC(C)(O)[C@H](F)CNC(=O)c1cnc(Nc2ccc3ncsc3c2)cc1NCC1CCCC1F (stereo partly drawn) [Example 117] | 363 | – | –
50 | CC(O)([C@H](F)CNC(=O)c1cnc(Nc2ccc3ncsc3c2)cc1NC1CCCC1F)C(F)(F)F (stereo in doubt) [Example 340] | 419 | – | –
51 | CC(C)(O)[C@H](F)CNC(=O)c1cnc(Nc2ccn3nccc3n2)cc1NC1CCOCC1F (stereo partly drawn) [Example 271] | 128 | – | –
52 | CNC(=O)c1cnc(Nc2ccc3ncsc3c2)cc1N[C@@H](c1ccccc1)[C@H](O)CO [Example 143] | – | – | IC50 (Homo sapiens, PBMC, 5 h): 295 nM
53 | CC(C)Nc1cc(Nc2ccc3nsnc3c2)ncc1C(=O)NC[C@@H](F)C(O)C(C)C (stereo partly drawn) [Example 22] | 456 | – | –
54 | CC(C)(O)[C@H](F)CNC(=O)c1cnc(Nc2ccc3ncncc3c2)cc1NC1CCCC1F (stereo partly drawn) [Example 345] | – | 246 | –
55 | CC(C)(O)[C@H](F)CNC(=O)c1cnc(Nc2nc3ccnn3cc2F)cc1N[C@H]1CCC[C@H]1F [Example 488] | – | – | EC50 [3]: 192 nM
56 | CC(C)(O)[C@H](F)CNC(=O)c1cnc(Nc2ccc3ncsc3c2)cc1NC1CCC1 [Example 46] | – | 183 | –
57 | CC(C)(O)[C@H](F)CNC(=O)c1cnc(Nc2ccc3ncsc3c2)cc1NCC1CCCC1O (stereo partly drawn) [Example 114] | 491 | – | –
58 | CC(C)(O)[C@H](F)CNC(=O)c1cnc(Nc2ccc3[nH]c(=O)sc3c2)cc1NC1CCCC1 [Example 34] | – | 152 | –
59 | CC(C)Nc1cc(Nc2ccc3[nH]c(=O)sc3c2)ncc1C(=O)NC[C@@H](F)C(C)(C)O [Example 40] | – | 503 | –
60 | CC(C)(O)[C@H](F)CNC(=O)c1cnc(Nc2ccc3ncsc3c2)cc1NCC1CCCC1F (stereo partly drawn) [Example 116] | 296 | – | –
61 | CC(C)Nc1cc(Nc2ccc3ncsc3c2)ncc1C(=O)NCC[C@@H](C)NC(=O)N1CCOCC1 [Example 182] | – | 508 | –
62 | Cc1cc2nc(Nc3cc(NC(C)C)c(C(=O)NC[C@@H](F)C(C)(C)O)cn3)ccn2n1 [Example 250] | – | 748 | –
63 | CC(C)(O)[C@H](F)CNC(=O)c1cnc(Nc2ccc3ncsc3c2)cc1NCC(F)(F)F [Example 84] | – | 501 | –
64 | CC(C)CCNC(=O)c1cnc(Nc2ccc3ncsc3c2)cc1NC(C)C [Example 210] | – | 551 | –
65 | CC(C)(O)[C@H](F)CNC(=O)c1cnc(Nc2ccc3ncsc3c2)cc1NCC1CCCC1F (stereo partly drawn) [Example 118] | 109 | – | –
66 | CC(C)(O)[C@H](F)CNC(=O)c1cnc(Nc2nc3ccnn3cc2F)cc1NC1CC1 [Example 269] | – | 445 | –
67 | CC(C)(O)[C@H](F)CNC(=O)c1cnc(Nc2ccc3ncsc3c2)cc1N[C@@H](c1cc(Cl)cc(Cl)c1)[C@H](O)CO [Example 77] | – | 377 | –
68 | CC(C)(O)[C@H](F)CNC(=O)c1cnc(Nc2ccc3ncsc3c2)cc1N[C@@H](c1cccc(F)c1)[C@H](O)CO [Example 44] | – | 699 | –
69 | CC(C)Nc1cc(Nc2ccc3[nH]c(=O)oc3c2)ncc1C(=O)NC[C@@H](F)C(C)(C)O [Example 393] | – | 392 | –
